A word on the IC50: it is the concentration needed to halve the response being measured. A high value points to weaker potency. As a reminder, the Kd is the free concentration of one partner at which half of the binding sites on the other are occupied at equilibrium, for simple one-to-one binding.

In experiment [1] the target is T1, Bcl-2-like protein 1 (Homo sapiens, UniProt Q07817). As to the kind of experiment: Displacement of FITC labeled Bak BH3 peptide from Bcl-xL after 10 mins by Fluorescence Polarization assay.
T1 sequence (Q07817 whole entry): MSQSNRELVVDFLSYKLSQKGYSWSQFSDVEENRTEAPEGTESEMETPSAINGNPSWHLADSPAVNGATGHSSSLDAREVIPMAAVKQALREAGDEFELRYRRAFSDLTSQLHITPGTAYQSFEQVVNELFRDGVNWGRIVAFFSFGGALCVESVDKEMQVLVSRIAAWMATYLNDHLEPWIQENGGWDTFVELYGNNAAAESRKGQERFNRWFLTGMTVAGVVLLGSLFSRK
Experiment [2] deals with Induced myeloid leukemia cell differentiation protein Mcl-1 (Homo sapiens, UniProt Q07820). As to the kind of experiment: Displacement of FITC labeled Bak BH3 peptide from Mcl-1 after 2 mins by Fluorescence Polarization assay. A general note: In fluorescence polarisation assays a small probe gives low polarisation when free and higher when bound to something large.
Sequence of Induced myeloid leukemia cell differentiation protein Mcl-1 (Q07820 whole entry): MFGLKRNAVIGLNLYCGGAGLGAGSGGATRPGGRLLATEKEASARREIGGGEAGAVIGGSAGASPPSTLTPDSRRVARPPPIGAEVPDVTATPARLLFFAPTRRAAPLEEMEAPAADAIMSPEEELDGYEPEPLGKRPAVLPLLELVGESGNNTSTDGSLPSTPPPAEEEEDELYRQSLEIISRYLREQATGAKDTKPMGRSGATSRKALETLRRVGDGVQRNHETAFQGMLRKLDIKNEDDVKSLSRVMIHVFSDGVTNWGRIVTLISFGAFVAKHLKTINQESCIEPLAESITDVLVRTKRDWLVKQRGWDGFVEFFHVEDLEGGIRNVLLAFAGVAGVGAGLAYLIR
The target in experiment [3] is T1, Bcl-2-like protein 1. As to the kind of experiment: Binding affinity to Bcl-xL by 2D- NOESY analysis.

Consider `O=C(NS(=O)(=O)c1ccc(COc2ccccc2)cc1)c1cccc(-c2cc(Cl)cc(Cl)c2)c1`, for which the 50% inhibitory concentration (IC50) in experiment [1] was 0.31 µM; in experiment [2] it was 7.57 µM. `O=C(NS(=O)(=O)c1ccc(Oc2ccccc2)cc1)c1ccc(-c2cc(Cl)cc(Cl)c2)cc1`: the half-inhibitory concentration (IC50) in experiment [1] amounted to 49.5 µM; in experiment [2] it was 5.08 µM. In the same order, the values of `O=C(NS(=O)(=O)c1ccc(OCc2ccccc2)cc1)c1ccc(-c2cc(Cl)cc(Cl)c2)cc1` are 3.19 µM and 6.3 µM. For `O=C(NS(=O)(=O)c1ccc(Oc2c(Cl)cccc2[N+](=O)[O-])cc1)c1cccc(-c2ccc(Cl)c(Cl)c2)c1` the same measures were 2 µM and 3.04 µM. In turn, `Oc1cccc2c1CCCC2` gave a dissociation constant Kd in experiment [3] of 4300 µM. With `CCCCOc1ccc(S(=O)(=O)NC(=O)c2cccc(-c3ccc(Cl)c(Cl)c3)c2)cc1`, the IC50 in experiment [1] was determined as 12.1 µM; in experiment [2], 38.8 µM.

`COc1ccccc1Oc1ccc(S(=O)(=O)NC(=O)c2cccc(-c3ccc(Cl)c(Cl)c3)c2)cc1`: the results for the IC50 in experiment [1] and in experiment [2] were 3.76 µM and 6.63 µM, respectively. For `O=C(NS(=O)(=O)c1ccc(OCc2ccccc2)cc1)c1cccc(-c2ccc(Cl)c(Cl)c2)c1` the same measures were 2.96 µM and 4.88 µM. As for `O=C(NS(=O)(=O)c1ccc2ccccc2c1)c1cccc(-c2ccc(Cl)c(Cl)c2)c1`, the IC50 in experiment [1] came to 10.9 µM; in experiment [2] it was 13.2 µM.

With `O=C(NS(=O)(=O)c1ccc(Oc2ccccc2)cc1)c1cccc(-c2cc(Cl)cc(Cl)c2)c1`, the half-maximal inhibitory concentration (IC50) in experiment [1] came out at 2.53 µM; in experiment [2], 7.11 µM. In the same order, the values of `O=C(NS(=O)(=O)c1ccc(Oc2ccccc2)cc1)c1cccc(-c2ccc(Cl)c(Cl)c2)c1` are 1.97 µM and 2.48 µM. For `O=C(NS(=O)(=O)c1ccc(COc2ccccc2)cc1)c1ccccc1-c1ccccc1`, the half-inhibitory concentration (IC50) in experiment [1] is 42.7 µM; in experiment [2], above 1000 µM. In the same order, the values of `O=C(NS(=O)(=O)c1ccc(COc2ccccc2)cc1)c1cccc(-c2ccccc2)c1` are 15.1 µM and 25.4 µM. As to `O=C(NS(=O)(=O)c1ccc(COc2ccccc2)cc1)c1ccc(-c2ccc(Cl)cc2)cc1`, the results for the IC50 in experiment [1] and in experiment [2] were 3.79 µM and 7.26 µM, respectively. In the same order, the values of `N#Cc1c(Cl)cccc1Oc1ccc(S(=O)(=O)NC(=O)c2cccc(-c3ccc(Cl)c(Cl)c3)c2)cc1` are 2.7 µM and 3.18 µM. For `O=C(NS(=O)(=O)c1ccc(Oc2ccccc2)nc1)c1cccc(-c2cc(Cl)cc(Cl)c2)c1`, the IC50 is 2.31 µM in experiment [1] and 9.78 µM in experiment [2]. For `O=C(NS(=O)(=O)c1ccc(Oc2ccccc2)cc1)c1ccc(-c2ccccc2)cc1` the same measures were 28 µM and 3.56 µM. `O=C(O)c1ccc(-c2ccc(F)cc2)cc1`: the Kd in experiment [3] came to 300 µM. `O=C(NS(=O)(=O)c1ccc(COc2ccccc2)cc1)c1ccc(-c2cc(Cl)cc(Cl)c2)cc1`: the IC50 in experiment [1] came out at 4.14 µM; in experiment [2], 2.51 µM. In the same order, the values of `O=C(NS(=O)(=O)c1ccc(COc2ccccc2)cc1)c1cccc(-c2ccc(Cl)c(Cl)c2)c1` are 7.15 µM and 5.76 µM. In the same order, the values of `CCOc1ccc(Oc2ccc(S(=O)(=O)NC(=O)c3cccc(-c4ccc(Cl)c(Cl)c4)c3)cc2)cc1` are 0.086 µM and 0.14 µM. In the same order, the values of `O=C(NS(=O)(=O)c1ccc(COc2ccccc2)cc1)c1ccc(-c2ccccc2)cc1` are 16.8 µM and 43.2 µM. With `O=C(NS(=O)(=O)c1ccc(OCC2CCCCC2)cc1)c1cccc(-c2ccc(Cl)c(Cl)c2)c1`, the IC50 in experiment [1] was 0.16 µM; in experiment [2], 0.62 µM. In the same order, the values of `O=C(NS(=O)(=O)c1ccc(COc2ccccc2)cc1)c1ccc(-c2ccc(F)cc2)cc1` are 9.37 µM and 16.6 µM. Consider `COc1ccc(-c2cccc(C(=O)NS(=O)(=O)c3ccc(Oc4ccccc4)cc3)c2)cc1OC`, for which the IC50 in experiment [1] is above 1000 µM; in experiment [2], 42.6 µM.

Turning to `O=C(NS(=O)(=O)c1ccc(Oc2ccccc2)cc1)c1cccc(-c2ccc(Cl)cc2Cl)c1`, the results for the IC50 in experiment [1] and in experiment [2] were 1.94 µM and 3.72 µM, respectively. For `O=C(NS(=O)(=O)c1ccc(COc2ccccc2)cc1)c1cccc(-c2ccc(Cl)cc2Cl)c1` the same measures were 9.98 µM and 8.69 µM. As for `O=C(NS(=O)(=O)c1ccc(Oc2cc(C(F)(F)F)cc(C(F)(F)F)c2)cc1)c1cccc(-c2ccc(Cl)c(Cl)c2)c1`, the IC50 is 2.94 µM in experiment [1] and 3.04 µM in experiment [2].

For the compound `O=C(NS(=O)(=O)c1ccc(OCc2ccccc2)cc1)c1cccc(-c2cc(Cl)cc(Cl)c2)c1`, the values for the half-maximal inhibitory concentration (IC50) in experiment [1] and in experiment [2] were 0.18 µM and 0.22 µM, respectively. For `O=C(NS(=O)(=O)c1ccc(Oc2ccc(F)cc2)cc1)c1cccc(-c2ccc(Cl)c(Cl)c2)c1`, the IC50 came out at 2.87 µM in experiment [1] and 3.91 µM in experiment [2]. On to `O=C(NS(=O)(=O)c1ccc(Oc2ccccc2)cc1)c1ccc(-c2ccc(F)cc2)cc1`, for which the concentration for half-maximal inhibition (IC50) in experiment [1] was 33.5 µM; in experiment [2], 17.8 µM. With `O=C(NS(=O)(=O)c1ccc(COc2ccccc2)cc1)c1cccc(-c2ccc(C(F)(F)F)cc2)c1`, the figures for the half-inhibitory concentration (IC50) in experiment [1] and in experiment [2] were 6.2 µM and 8.37 µM, respectively. For `O=C(NS(=O)(=O)c1ccc(Oc2ccccc2)cc1)c1cccc(-c2ccccc2)c1` the same measures were 28.5 µM and 3.24 µM. For `O=C(NS(=O)(=O)c1ccc(-c2ccccc2)cc1)c1ccc(Oc2ccccc2)cc1` the same measures were 161 µM and above 1000 µM. In experiment [3], `O=C(O)c1ccccc1N1CCCCC1` registered a dissociation constant (Kd) of 378 µM. Consider `O=C(NS(=O)(=O)c1ccc(Oc2ccccc2)cc1)c1cccc(-c2cccc(Cl)c2Cl)c1`, for which the half-maximal inhibitory concentration (IC50) in experiment [1] is 4.08 µM; in experiment [2] it was 4.76 µM. `Nc1ncccc1OCc1ccccc1` registered a Kd in experiment [3] of 692 µM.

The values are drawn from ChEMBL document CHEMBL1821700, “SAR by interligand nuclear overhauser effects (ILOEs) based discovery of acylsulfonamide compounds active against Bcl-x(L) and Mcl-1” (J Med Chem, 2011).
